According to patent publication US5318967A, “2,3,3a,4,5,9b-hexahydro-1H-benzo[e]indole derivatives” (priority 1991, dated 1994):

These compounds were tested against acetylcholine esterase (Homo sapiens, UniProt P22303) (assay: biochemical). Conditions: read-out: IC 50 for acetylcholine esterase inhibition.
Chain of acetylcholine esterase (P22303 32-614): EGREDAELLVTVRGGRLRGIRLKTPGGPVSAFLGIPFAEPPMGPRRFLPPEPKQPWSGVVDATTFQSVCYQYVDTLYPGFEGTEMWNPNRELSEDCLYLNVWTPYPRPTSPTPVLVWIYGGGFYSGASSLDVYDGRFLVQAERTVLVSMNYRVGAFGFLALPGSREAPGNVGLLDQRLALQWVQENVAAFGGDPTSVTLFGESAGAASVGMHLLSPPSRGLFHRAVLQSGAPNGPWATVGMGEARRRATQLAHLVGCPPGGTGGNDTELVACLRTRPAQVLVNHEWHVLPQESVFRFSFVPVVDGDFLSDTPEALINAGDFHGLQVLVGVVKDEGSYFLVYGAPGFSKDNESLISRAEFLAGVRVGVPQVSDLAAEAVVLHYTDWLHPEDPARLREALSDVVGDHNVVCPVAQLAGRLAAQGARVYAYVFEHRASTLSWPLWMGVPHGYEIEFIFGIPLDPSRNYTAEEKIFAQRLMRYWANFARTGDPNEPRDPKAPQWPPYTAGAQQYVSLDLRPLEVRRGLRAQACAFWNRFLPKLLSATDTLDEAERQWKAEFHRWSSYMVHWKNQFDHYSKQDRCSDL
Description: The determination of the acetylcholine esterase inhibition was effected according to the method of Ellmann et al., Biochem. Pharmacol. 7 (1961) 88, and/or according to the method of Johnson et al., Analytical Biochemistry 64 (1975), 229.
CN(C)C(=O)Oc1cccc2c1CC[C@H]1[C@@H]2CCN1CCC1CCCC1 (racemic) [rac-3-(2-cyclopentylethyl)-cis-2,3,3a,4,5,9b-hexahydro-1H-benzo[e]indol-6-yl dimethylcarbamate] showed an IC50 of 30 nM.
CN(C)C(=O)Oc1cccc2c1CC[C@H]1[C@@H]2CCN1CCN1CCCCC1 (racemic) [rac-3-(2-piperidin-1-yl-ethyl)-cis-2,3,3a,4,5,9b-hexahydro-1H-benzo[e]indol-6-yl dimethylcarbamate] showed an IC50 of 31 nM.
CN(C)C(=O)Oc1cccc2c1CC[C@H]1[C@@H]2CCN1CCCC(=O)c1ccccc1 (racemic) [rac-3-(3-benzoyl-propyl)-cis-2,3,3a,4,5,9b-hexahydro-1H-benzo[e]indol-6-yl dimethylcarbamate] showed an IC50 of 8.3 nM.
CN(C)C(=O)Oc1cccc2c1CC[C@H]1[C@@H]2CCN1CCCC1CCCCC1 (racemic) [rac-3-(3-cyclohexylpropyl)-cis-2,3,3a,4,5,9b-hexahydro-1H-benzo[e]indol-6-yl dimethylcarbamate] was tested, and the IC50 was 19 nM.
For CC(C)CCN1CC[C@@H]2c3cccc(OC(=O)N(C)C)c3CC[C@@H]21 (racemic) [rac-3-(3-methylbutyl)-cis-2,3,3a,4,5,9b-hexahydro-1H-benzo[e]indol-6-yl dimethylcarbamate], the IC50 was 67 nM.
CN(C)C(=O)Oc1cccc2c1CC[C@H]1[C@@H]2CCN1CCCN1CCOCC1 (racemic) [rac-3-(3-morpholin-4-yl-propyl)-cis-2,3,3a,4,5,9b-hexahydro-1H-benzo[e]indol-6-yl dimethylcarbamate] gave an IC50 of 63 nM.
With CN(C)C(=O)Oc1cccc2c1CC[C@H]1[C@@H]2CCN1CCCc1ccccc1 (racemic) [rac-3-(3-phenylpropyl)-cis-2,3,3a,4,5,9b-hexahydro-1H-benzo[e]indol-6-yl dimethylcarbamate] the IC50 was 36 nM.
CN(C)C(=O)Oc1cccc2c1CC[C@H]1[C@@H]2CCN1CCCCC(=O)c1ccccc1 (racemic) [rac-3-(4-benzoyl-butyl)-cis-2,3,3a,4,5,9b-hexahydro-1H-benzo[e]indol-6-yl dimethylcarbamate] was tested, and the IC50 was 612 nM.
Work on CN(C)C(=O)Oc1cccc2c1CC[C@H]1[C@@H]2CCN1CCCC(=O)c1ccc(F)cc1 (racemic) [rac-3-[3-(4-fluoro-benzoyl)-propyl]-cis-2,3,3a,4,5,9b-hexahydro-1H-benzo[e]indol-6-yl dimethylcarbamate] yielded an IC50 of 6.8 nM.
For CN(C)C(=O)Oc1cccc2c1CC[C@H]1[C@@H]2CCN1CCCCN1Cc2ccccc2C1=O (racemic) [rac-3-[4-(1-oxo-isoindolin-2-yl)-butyl]-cis-2,3,3a,4,5,9b-hexahydro-1H-benzo[e]indol-6-yl dimethylcarbamate], the IC50 was 8.6 nM.
COc1ccc(C(=O)CCCCN2CC[C@@H]3c4cccc(OC(=O)N(C)C)c4CC[C@@H]32)cc1OC (racemic) [rac-3-[4-(3,4-Dimethoxy-benzoyl)-butyl]-cis-2,3,3a,4,5,9b-hexahydro-1H-benzo[e]indol-6-yl dimethylcarbamate] showed an IC50 of 1.4 nM.
Compound CN(C)C(=O)Oc1cccc2c1CC[C@H]1[C@@H]2CCN1CCCCN1C(=O)CC(C)(C)CC1=O (racemic) [rac-3-[4-(4,4-dimethyl-2,6-dioxo-piperidin-1-yl)-butyl]-cis-2,3,3a,4,5,9b-hexahydro-1H-benzo[e]indol-6-yl dimethylcarbamate] has an IC50 of 13 nM.
CN(C)C(=O)Oc1cccc2c1CC[C@H]1[C@@H]2CCN1CCCCCN1C(=O)c2ccccc2C1=O (racemic) [rac-3-[5-(1,3-dioxo-isoindolin-2-yl)-pentyl]-cis-2,3,3a,4,5,9b-hexahydro-1H-benzo[e]indol-6-yl dimethylcarbamate] gave an IC50 of 2.7 nM.
With CN(C)C(=O)Oc1cccc2c1CC[C@H]1[C@@H]2CCN1CCCCCN1Cc2ccccc2C1=O (racemic) [rac-3-[5-(1-oxo-isoindolin-2-yl)-pentyl]-cis-2,3,3a,4,5,9b-hexahydro-1H-benzo[e]indol-6-yl dimethylcarbamate] the IC50 was 4.5 nM.
COc1ccc(C(=O)CCCCCN2CC[C@@H]3c4cccc(OC(=O)N(C)C)c4CC[C@@H]32)cc1OC (racemic) [rac-3-[5-(3,4-dimethoxy-benzoyl)-pentyl]-cis-2,3,3a,4,5,9b-hexahydro-1H-benzo[e]indol-6-yl dimethylcarbamate] gave an IC50 of 1.2 nM.
CN(C)C(=O)Oc1cccc2c1CC[C@H]1[C@@H]2CCN1CCCCCN1C(=O)CC(C)(C)CC1=O (racemic) [rac-3-[5-(4,4-dimethyl-2,6-dioxo-piperidin-1-yl)-pentyl]-cis-2,3,3a,4,5,9b-hexahydro-1H-benzo[e]indol-6-yl dimethylcarbamate] was tested, and the IC50 was 11 nM.
CN(C)C(=O)Oc1cccc2c1CC[C@H]1[C@@H]2CCN1CCCCCCN1Cc2ccccc2C1=O (racemic) [rac-3-[6-(1-oxo-isoindolin-2-yl)-hexyl]-cis-2,3,3a,4,5,9b-hexahydro-1H-benzo[e]indol-6-yl dimethylcarbamate] gave an IC50 of 2.9 nM.
For CN(C)C(=O)Oc1cccc2c1CC[C@H]1[C@@H]2CCN1CCCCCCN1C(=O)CC(C)(C)CC1=O (racemic) [rac-3-[6-(4,4-dimethyl-2,6-dioxo-piperidin-1-yl)-hexyl]-cis-2,3,3a,4,5,9b-hexahydro-1H-benzo[e]indol-6-yl dimethylcarbamate], the IC50 was 8 nM.
In the case of CN(C)C(=O)Oc1cccc2c1CC[C@H]1[C@@H]2CCN1CC1CCCCC1 (racemic) [rac-3-cyclohexylmethyl-cis-2,3,3a,4,5,9b-hexahydro-1H-benzo[e]indol-6-yl dimethylcarbamate], the IC50 is reported as 36 nM.
With CN(C)C(=O)Oc1cccc2c1CC[C@H]1[C@@H]2CCN1CCc1ccccc1 (racemic) [rac-3-phenethyl-cis-2,3,3a,4,5,9b-hexahydro-1H-benzo[e]indol-6-yl dimethylcarbamate] the IC50 was 47 nM.
For CCCN1CC[C@@H]2c3cccc(OC(=O)N(C)C)c3CC[C@@H]21 (racemic) [rac-3-propyl-cis-2,3,3a,4,5,9b-hexahydro-1H-benzo[e]indol-6-yl dimethylcarbamate], the IC50 was 40 nM.
Work on CCCCNC(=O)Oc1cccc2c1CC[C@H]1[C@@H]2CCN1CCC1CCCCC1 (racemic) [rac-cis-3-(2-cyclohexylethyl)-2,3,3a,4,5,9b-hexahydro-1H-benzo[e]indol-6-yl butylcarbamate] yielded an IC50 of 793 nM.
CN(C)C(=O)Oc1cccc2c1CC[C@H]1[C@@H]2CCN1CCCC1CCCC1 (racemic) [rac-cis-3-(3-cyclopentyl-propyl)-2,3,3a,4,5,9b-hexahydro-1H-benzo[e]indol-6-yl dimethylcarbamate] was tested, and the IC50 was 14 nM.
CN(C)C(=O)Oc1cccc2c1CC[C@H]1[C@@H]2CCN1CCCCNC(=O)c1ccccc1 (racemic) [rac-cis-3-(4-benzoylaminobutyl)-2,3,3a,4,5,9b-hexahydro-1H-benzo[e]indol-6-yl dimethylcarbamate] gave an IC50 of 16 nM.
CN(C)C(=O)Oc1cccc2c1CC[C@H]1[C@@H]2CCN1CCCCC1CCCCC1 (racemic) [rac-cis-3-(4-cyclohexyl-butyl)-2,3,3a,4,5,9b-hexahydro-1H-benzo[e]indol-6-yl dimethylcarbamate] was tested, and the IC50 was 35 nM.
For CN(C)C(=O)Oc1cccc2c1CC[C@H]1[C@@H]2CCN1CCCCCNC(=O)c1ccc(S(C)(=O)=O)cc1 (racemic) [rac-cis-3-[5-(4-methanesulfonylbenzoylamino)pentyl]-2,3,3a,4,5,9b-hexahydro-1H-benzo[e]indol-6-yl dimethylcarbamate], the IC50 was 5.1 nM.
Compound CN(C)C(=O)Oc1cccc2c1CC[C@H]1[C@@H]2CCN1C1CCCC1 (racemic) [rac-cis-3-cyclopentyl-2,3,3a,4,5,9b-hexahydro-1H-benzo[e]indol-6-yl dimethylcarbamate] has an IC50 of 95 nM.
Work on CN(C)C(=O)Oc1cccc2c1CC[C@@H]1[C@H]2CCN1CCCCN (relative stereo) [rac-3-(4-aminobutyl)-2,3,3a,4,5,9b-hexahydro-1H-cis-benzo[e]indol-6-yl dimethylcarbamate] yielded an IC50 of 267 nM.
CN(C)C(=O)Oc1cccc2c1CC[C@@H]1[C@H]2CCN1CCCCCN (relative stereo) [rac-3-(5-aminopentyl)-2,3,3a,4,5,9b-hexahydro-1H-cis-benzo[e]indol-6-yl dimethylcarbamate] gave an IC50 of 111 nM.
For CN(C)C(=O)Oc1cccc2c1CC[C@@H]1[C@H]2CCN1CCCCCNC(=O)c1ccccc1 (relative stereo) [rac-3-(5-benzoylaminopentyl)-2,3,3a,4,5,9b-hexahydro-1H-cis-benzo[e]indol-6-yl dimethylcarbamate], the IC50 was 15.2 nM.
In the case of CN(C)C(=O)Oc1cccc2c1CC[C@@H]1[C@H]2CCN1CCCCCCN (relative stereo) [rac-3-(6-aminohexyl)-2,3,3a,4,5,9b-hexahydro-1H-cis-benzo[e]indol-6-yl dimethylcarbamate], the IC50 is reported as 8 nM.
CN(C)C(=O)Oc1cccc2c1CC[C@@H]1[C@H]2CCN1CCCCCCNC(=O)c1ccccc1 (relative stereo) [rac-3-(6-benzoylamino-hexyl)-2,3,3a,4,5,9b-hexahydro-1H-cis-benzo[e]indol-6-yl-dimethylcarbamate] was tested, and the IC50 was 11 nM.
With CN(C)C(=O)Oc1cccc2c1CC[C@@H]1[C@H]2CCN1CCCCCN1C(=O)[C@H]2CCCC[C@H]2C1=O (relative stereo) [rac-3-[5-(1,3-dioxo-octahydro-cis-isoindol-2-yl)pentyl]-2,3,3a,4,5,9b-hexahydro-1H-cis-benzo[e]indol-6-yl dimethylcarbamate] the IC50 was 7.8 nM.
Work on CN(C)C(=O)Oc1cccc2c1CC[C@@H]1[C@H]2CCN1CCCCCCNC(=O)c1ccc(S(C)(=O)=O)cc1 (relative stereo) [rac-3-[6-(4-methanesulfonyl-benzoylamino)hexyl]-2,3,3a,4,5,9b-hexahydro-1H-cis-benzo[e]indol-6-yl-dimethylcarbamate] yielded an IC50 of 5.6 nM.
CN(C)C(=O)Oc1cccc2c1CC[C@@H]1[C@H]2CCN1Cc1ccccc1 (relative stereo) [rac-3-benzyl-2,3,3a,4,5,9b-hexahydro-1H-cis-benzo[e]indol-6-yl dimethylcarbamate] was tested, and the IC50 was 49 nM.
CN(C)C(=O)Oc1cccc2c1CC[C@@H]1[C@H]2CCN1CCCCNC(=O)c1ccc(S(C)(=O)=O)cc1 (relative stereo) [rac-N-[4-(6-dimethylcarbamoyloxy)-cis-2,3,3a,4,5,9b-hexahydro-1H-benzo[e]indol-3-yl)-butyl]-4-methanesulfonylbenzamide] showed an IC50 of 6.7 nM.
